{"source": "patent US8470772B2", "about": "“Leptin agonist and methods of use” (Temple University—Of The Commonwealth System of Higher …, priority 2008, dated 2013)", "key": {"ERK1/2": {"tested_on": "ERK1/2", "assay": "ObR signaling assay: ERK1/2 phosphorylation in MCF-7 cells by Western blotting", "type": "cell-based, human", "experimental": "MCF-7 cells were grown and treated with E1Free peptide and full-sized leptin as described for the cell stimulation assays elsewhere herein. Cells were lysed with SDS sample buffer and scraped off of the plate. DNA was sheared using sonication, after which the sample was heated to 95° C., centrifuged and, subjected to SDS-PAGE. After gel electrophoresis, the proteins were transferred to nitrocellulose membrane. The membrane was incubated with 5% milk as blocking buffer, followed by addition of rabbit polyclonal antibodies to phosphorylated or total ERK1/2 MAP kinases (1:500 dilution in TBST and 2% milk, Cell Signaling Technology). The expression of a constitutive Hsp72/74 protein was probed with mouse monoclonal antibodies to control protein loading (1:5,000 dilution in TBST and 3% milk Calbiochem). After extensive washing, the blots incubated with HRP-conjugated secondary anti-rabbit (1:1,000 in TBST and 2% milk, Santa Cruz Biotechnology) and anti-mouse (1:10,000 TBST and 3% milk, Amersham Biosciences) IgG antibodies produced in goats, and developed as described for the dot-blot above."}, "MCF-7 cells": {"tested_on": "MCF-7 cells", "assay": "MCF-7 cell stimulation (cell growth) assay, cell counts by trypan blue exclusion", "type": "cell-based, human", "conditions": "for MCF-7 cell count increase: no leptin", "from_the_text": "For the evaluation of the biological activity of the synthesized leptin Site III peptide fragments, human cell lines were selected in which the ObR expression level is known. Two ObR-positive human cell models were used: MCF-7 breast cancer cells and DU-45 prostate cancer cells. Both cell lines express ObR, and leptin and leptin analogues stimulate their growth (C. Garofalo, et al., Clin. Cancer Res., 2004, 10, 6466-6475; C. Garofalo, et al., Clin. Cancer Res., 2006, 12, 1447-1453). Normal mammary epithelial MCF-10 cells lacking ObR were used as a negative control (X. Hu, et al., J. Natl. Cancer Inst., 2002, 94, 1704-1711).\nBiological activity of the Site III peptides was assayed as follows. MCF-7 cells were stimulated with 6 nM full-sized leptin. The smaller leptin fragments and analogs were added to the cell culture at a concentration of 10 nM, 100 nM or 1 μM. Leptin at […] concentration stimulated MCF-7 cell growth by approximately 40%, in line with previous observations (C. Garofalo, et al., Clin. Cancer Res., 2004, 10, 6466-6475). All Site III peptides bound to the extracellular domain of ObR as documented by dot-blot or Western-blot analysis. […] In fact, it reversed leptin induced stimulation of MCF-7 cells at as low as 10 nM peptide concentration, with an additional 50% reduction in cell counts at 1 μM. When the assay was run at a more reliably measurable 1 μM peptide concentration, a consistent 6% decrease in cell numbers could be observed compared to the leptin only samples. In summary, in the presence of exogenously added full-sized leptin these assays verified the strong antagonist activity of the Site III Ala,Ala mutant.\nThe cell stimulation activity of the Site III peptides was assayed as follows. Human leptin was purchased from R&D Systems and used at a concentration of 100 ng/mL (approximately 6 nM). MCF-7 and DU-45 cells naturally expressing ObR were grown in a standard medium DMEM:F12 plus 5% fetal bovine serum. MCF-10 was grown in serum-free mammalian epithelial growth medium supplemented with 100 ng/mL cholera toxin. Seventy percent confluent cultures were synchronized in serum-free medium (DMEM plus 10 μM FeSO4, plus 0.5% albumin) for 24 h and then treated with leptin and/or peptides (different doses) for 5 days. Cell counts before and after treatment were determined by counting the cells using trypan blue exclusion. All assays were conducted in triplicate and repeated at least twice."}}, "note": "Non-standard residues stand in square brackets, D forms with d. No end group written: not given here. *: point of attachment. βGlc = OC[C@H]1O[C@@H](*)[C@H](O)[C@@H](O)[C@@H]1O; Tyr(3,5-I2) = N[C@@H](Cc1cc(I)c(O)c(I)c1)C(=O)O; Dap = NC[C@H](N)C(=O)O"}
{"substance": "Tyr(I2)-Serβ(Glc)-Thr-Glu-Va1-Va1-Ala-Leu-Ser-Arg-Leu-Dap(Ac) ([Tyr(3,5-I2)]S(βGlc)TEVVALSRL[Dap](Ac)-NH2) [E1Free]", "values": [{"measurement": "peptide concentration of maximum observed ERK1/2 stimulation", "setting": "ERK1/2", "result": 200, "unit": "nM"}, {"measurement": "phosphorylation of ERK1/2", "setting": "ERK1/2; total ERK1/2 steady", "result": "increased"}, {"measurement": "MCF-7 cell count increase", "setting": "MCF-7 cells; 100 nM peptide", "result": 81, "unit": "%"}, {"measurement": "further increase of leptin-induced cell stimulation", "setting": "MCF-7 cells; 1000 nM peptide, in the presence of 6 nM leptin", "result": 84, "unit": "%"}, {"measurement": "MCF-7 cell count increase", "setting": "MCF-7 cells; 1000 nM peptide", "result": 114, "unit": "%"}, {"measurement": "overall agonist character on cells expressing ObR", "setting": "MCF-7 cells; in the presence and absence of leptin", "result": "full agonists"}]}
